In US20090280112A1 (The Regents of the University of California, priority 2008, published 2009):

Legend:
[1] = system: LAPC-4 prostate cancer cells; assay: LAPC-4 prostate cancer cell growth (CyQuant or BCA cell proliferation assay); format: cell-based, human; conditions: for block of the effect of 1 nM DHT to stimulate proliferation: much smaller effects on non-androgen mediated growth
Procedure: LAPC-4 prostate cancer cells were maintained at 37° C., 5% CO2 in phenol-free RPMI+10% FCS RPMI. Steroid free medium consisted of phenol-free RPMI supplemented with 10% dextran-coated, charcoal-treated serum (10% CDSS RPMI). LAPC-4 cells were incubated in this steroid-free 10% CDSS RPMI for 3 days prior to plating in 96 well plates (5×10^3 cells/well). […] The medium with androgens and inhibitors was refreshed on day 3. The plates were harvested on day 7 by inverting the microplate onto paper towels with gentle blotting to remove growth medium without disrupting adherent cells and freezing them at −80° C. for at least 30 minutes. LAPC-4 prostate cancer cell growth was determined using either the CyQuant cell proliferation assay (Molecular Probes, Eugene, Oreg.) or by the BCA assay (Pierce, Rockford, Ill.). Cell proliferation was calculated as the percent of content versus control cells at day 0.
Each value shown is the mean+SD for triplicate determinations. In FIGS. 1a and 2b, cell proliferation was measured by BCA, and in FIG. 1c by the CyQuant method. In all future studies, the CyQuant method was employed to measure proliferation.

insulin receptor (IR) = conditions: FIG. 5c
Procedure: Level of insulin receptor was determined in 15 μg of total protein run on SDS-PAGE under reducing conditions, transferred to nitrocellulose membrane, and analyzed by probing with an anti-insulin receptor antibody CT-3, diluted 1:1000 in 1% milk, 1% BSA in TBST at 4° C. overnight. The secondary anti-mouse IgG, diluted 1:2000 in the same blocking buffer, was applied for 90 minutes at room temperature. Blots were incubated with SuperSignal, and exposed to film.

IGF-1 receptor mRNA = assay: IGF-1 receptor gene expression by quantitative PCR in LAPC-4 cells; format: cell-based, human; conditions: FIG. 6a
Procedure: A large master mix of the above-mentioned components (minus the primers, probe and cDNA) was made for each experiment and aliquoted into individual tubes, one for each cDNA sample. cDNA was then added to the aliquoted master mix. The master mix with cDNA was aliquoted into a 384-well plate, with nine wells used for each cDNA sample. The primers and probes were mixed together and added to the master mix and cDNA in the 384-well plate. PCR was conducted on the ABI 7900HT (Applied Biosystems, CA) using the following cycle parameters: 1 cycle of 95° C. for 10 minutes, 40 cycles of 95° C. for 15 seconds, 60° C. for 1 minute. Analysis was carried out using the SDS software (version 2.3) supplied with the ABI 7900HT. The Ct values for each set of three reactions were averaged for all subsequent calculations. PCR primer and TaqMan probe sequences were either synthesized by Integrated DNA Technologies (Coralville, Iowa) or purchased from Applied Biosystems (Foster City, Calif.).

IGF-1 receptor = IGF-1 receptor content in LAPC-4 cells (immunoprecipitation, western blot); format: cell-based, human
Procedure: At the end of the incubation period, cells were washed twice with PBS and solubilized with lysis buffer (50 mM HEPES pH 7.6, 150 mM NaCl, 0.1% Triton X-100, 1 mM PMSF, 2 mM Na3VO4) for 1 hour at 4° C. […] The immunoprecipitated samples were run on SDS-PAGE, under reducing condition. Following transfer to nitrocellulose membrane, levels of IGF-1 receptor were assessed by western blot. Following an overnight incubation at 4° C., the membranes were washed 3 times with TBST and then incubated with HRP-conjugated anti-rabbit IgG diluted 1:50,000 in the same blocking buffer for 90 minutes at room temperature. After washing, blots were incubated with Super Signal (Pierce Chemicals, Rockford, Ill.), and exposed to film.

LAPC-4 cells = assay: LAPC-4 growth in soft agar (anchorage independent growth), CyQuant; format: cell-based, human; conditions: 1 nM DHT, 6 days, FIG. 3b
[2] = system: patients with both androgen-dependent and androgen-independent prostate cancer; conditions: Ryan et al. (2008), cited from earlier work

Structure (SMILES): C[C@]12CCC(=O)C[C@@H]1CC[C@@H]1[C@@H]2CC[C@]2(C)[C@@H](O)CC[C@@H]12 [DHT, dihydrotestosterone]
- affect to stimulate growth above control ([1]; DHT at 10 nM, 7 days, 3 separate experiments, mean+SEM): 83+8%
- concentration at which a major effect on proliferation was observed ([1]; FIG. 1b): 0.1 nM
- change in content of insulin receptor (IR) (insulin receptor (IR)): no change
- concentration that maximally increases IGF-1 receptor gene expression (IGF-1 receptor mRNA): 0.1 nM
- concentration at which a significant effect on IGF-1 receptor content was observed (IGF-1 receptor; FIG. 5b): 0.1 nM
- effect on content of the IGF-1 receptor (IGF-1 receptor; western blot, FIG. 5a): markedly increased

Structure (SMILES): Nc1ncnc2c1c(-c1cccc(OCc3ccccc3)c1)cn2C1CC(CN2CCC2)C1 (centres unmarked) [NVP-AEW541]
- block of the effect of 1 nM DHT to stimulate proliferation [1]: completely blocked

Structure (SMILES): COc1cc([C@@H]2c3cc4c(cc3[C@H](O)[C@H]3COC(=O)[C@@H]23)OCO4)cc(OC)c1OC [PPP, picropodophyllin]
- block of the effect of 1 nM DHT to stimulate proliferation [1]: completely blocked

Structure (SMILES): C[C@H](Cc1ccc(O)c(O)c1)[C@@H](C)Cc1ccc(O)c(O)c1 [NDGA, Meso-nordihydroguaiaretic acid]
- IC50 ([1]; Homo sapiens, LAPC4, 5 separate experiments, mean+SEM, read-out: half-maximal effect to inhibit androgen-stimulated growth): 5 µM
- inhibition of the effect of DHT on growth in soft agar (LAPC-4 cells): inhibited anchorage independent growth
- clinical safety [2]: reasonable safety
- effect on PSA ([2]; patients with non-castrate levels of testosterone and a rising PSA): modest declines in PSA
- inhibition of the effect of DHT to increase expression of IGF-1 receptor (IGF-1 receptor mRNA; NDGA at 10 μM): completely inhibit
- IC50 (IGF-1 receptor; read-out: effects to inhibit DHT-induced IGF-1 receptor content, 3 separate experiments, mean+SEM, FIG. 5e): 11 µM
